Measured values: article PMC4124033 (Journal of molecular neuroscience : MN, 2010)

Assays:
[1] = target: T1, monoacylglycerol lipase (MAGL) (Homo sapiens, UniProt Q99685); format: biochemical
T1 sequence (Q99685 1-303): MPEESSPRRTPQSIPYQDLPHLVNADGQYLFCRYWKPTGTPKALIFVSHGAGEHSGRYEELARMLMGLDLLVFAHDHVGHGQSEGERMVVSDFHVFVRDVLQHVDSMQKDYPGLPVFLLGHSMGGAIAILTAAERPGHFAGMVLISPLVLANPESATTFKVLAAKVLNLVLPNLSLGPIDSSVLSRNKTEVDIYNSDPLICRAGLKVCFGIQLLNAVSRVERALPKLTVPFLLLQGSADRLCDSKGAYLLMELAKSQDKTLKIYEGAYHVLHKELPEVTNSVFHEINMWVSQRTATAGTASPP

[2] = target: T2, fatty acid amide hydrolase (FAAH) (Rattus norvegicus, UniProt P97612); format: biochemical
T2 sequence (P97612 1-579): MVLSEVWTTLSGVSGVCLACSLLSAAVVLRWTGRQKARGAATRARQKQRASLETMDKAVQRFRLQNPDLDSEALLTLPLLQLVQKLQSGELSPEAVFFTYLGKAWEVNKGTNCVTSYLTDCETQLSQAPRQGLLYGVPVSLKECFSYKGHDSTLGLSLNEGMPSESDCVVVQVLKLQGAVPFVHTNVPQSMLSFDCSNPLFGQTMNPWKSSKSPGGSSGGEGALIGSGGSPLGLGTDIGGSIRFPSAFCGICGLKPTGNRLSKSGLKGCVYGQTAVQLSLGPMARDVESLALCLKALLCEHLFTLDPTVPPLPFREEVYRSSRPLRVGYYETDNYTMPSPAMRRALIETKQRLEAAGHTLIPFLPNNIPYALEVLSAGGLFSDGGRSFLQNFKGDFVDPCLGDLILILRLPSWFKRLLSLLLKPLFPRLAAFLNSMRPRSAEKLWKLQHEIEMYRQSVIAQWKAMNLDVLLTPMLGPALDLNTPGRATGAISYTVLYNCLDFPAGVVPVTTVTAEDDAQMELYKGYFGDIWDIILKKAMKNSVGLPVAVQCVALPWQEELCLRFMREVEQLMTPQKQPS

AM5206
IC50 [1]: 15.1 µM | IC50 [2]: 0.042 ± 0.006 µM
